How the values were obtained:
[1] = system: Nrf2 in Cd11b-positive microglial cells; test: Nrf2 immunocytochemistry in glial cells (nuclei of Cd11b-positive cells), with p21 siRNA; assay type: cell-based, murine; details: for Nrf2 expression: data not shown; for expression of Nrf2 in Cd11b-positive microglial cells: glial cells, FIGS. 1B and 1C
Method: Cells were plated in 96-well purecoat amine coated plates and treated as desired for each specific experiment. After immunolabeling was complete, automated image acquisition (with twenty-fold magnification of objective lens, 2×2 CCD binning, twenty-five fields per well) and analysis was performed using Opera Phenix (manufactured by PerkinElmer Co., Ltd.) equipped with Harmony software. Image acquisition was performed using a fluorescence microscope (BZ-9000, manufactured by Keyence corporation) or a confocal microscope (SP-8, manufactured by Leica) as well.
(§1) Microglial cell line BV-2 was maintained in high glucose Dulbecco's modified Eagle's medium (DMEM) (Nacalai Tesque) supplemented with 10% fetal bovine serum (Nichirei Bioscienses), 100 U/mL penicillin, and 100 μg/mL streptomycine. Primary hippocampal and cortical neuronal cultures were prepared from embryonic day 18 mice and maintained in Neurobasal medium (Life Technologies) supplemented with 2% B27 supplement, 100 U/mL, penicillin, 100 μg/mL streptomycin, and 0.5 mM L-glutamine. Dopaminergic neuronal cultures were prepared from ventral midbrain of embryonic day 13 mice and maintained in Neurobasal medium (Life Technologies) supplemented with 10% fetal bovine serum, 2% B27 supplement, 10 ng/mL GDNF, 100 U/mL penicillin, and 100 μg/mL streptomycin. For depletion of glial cells, 5 μM cytosine β-D-arabinofuranoside, 10 μM 5-fluorouracil, and 10 μM uridine (all from Sigma-Aldrich) were added at 2-day culture. Mixed glial cultures were obtained from new born murine pups (P1 to P4) and maintained in T75 or T175 flask. Media were changed every 3-4 days until the cells get confluent. Microglia were obtained either by shaking vigorously or Cd11b-positive selection (Invitrogen). For co-culture experiments, murine glial cell cultures were prepared from MGE (Medial Ganglionic Eminence) of embryonic day 13 and cultured in PLL-coated dish. Cultures were passaged twice with trypsin, and used for co-cultured assay with iPSC-derived neurons. 1039A1 iPS cells were established and maintained as described previously (Nakagawa et al., Sci Rep 4, 3594, 2014). Induction of dopaminergic precursor cells was performed as described previously (Doi et al., Stem Cell Reports 2, 337-350, 2014, Kikuchi et al., Nature 548, 592-596, 2017). Briefly, hiPS cells 1039A1 were plated on Laminin511, and differentiated in GMEM medium containing 8% KSR, Y27632 (Wako), A-83-01 (Wako), LDN193178 (STEMGENT). Purmorphamine (Wako), FGF8 (Wako, from day 1 to day 7), and CHIR99021 (Wako, from day 3 to day 12) were added. After cell sorting of Corin+ cells, cells were replated onto low attachment 96-well plates for neurosphere cultures and maintained in neurobasal medium with B27 supplement, 2 mM L-glutamine (Invitrogen), 10 ng/mL GDNF, 200 μM ascorbic acid, 20 ng/mL BDNF (all from Wako), and 400 μM dbcAMP (Sigma-Aldrich) for further 2 weeks. To avoid apoptosis, 30 μM of Y27632 (Wako) was added at the initial plating.
Cells were fixed with 4% paraformaldehyde for 10 minutes, followed by permealization with 0.2% TritonX-100 for 10 minutes. After washing in PBS, cells were blocked in 5% normal donkey serum (Jackson ImmunoResearch Laboratories)/1% BSA (SIGMA A7906)/PBS and then labeled with the primary antibodies. After washing with PBS, primary antibodies were labeled with the corresponding fluorescence-conjugated secondary antibodies. Hoechst 33342 was used to detect nuclei.
Cells were visualized with anti-Nrf2 (pseudo-color), Cd11b (magenta, microglia), and GFAP (green, astrocyte) antibodies. Scale bar=25 μm.
Glial cells were treated with the compounds 1 and 2 for indicated periods and at indicated concentrations.

DYRK1A = DYRK1A (Homo sapiens, UniProt Q13627); test: in vitro kinase activity assay against DYRK1A; assay type: biochemical
Method: In Vitro Enzyme Activity Assay
The in vitro kinase activity assay was performed as described previously (Ogawa et al., Nat Commun 1, 86, 2010).

microglial cells BV-2 = test: Western blotting of BV-2 cells treated with compound; assay type: cell-based; details: time-dependently and dose-dependently, FIG. 1A
Method: as §1, with “Induction of dopaminergic precursor cells was performed as described previously (Doi et al., Stem Cell Reports 2, 337-350, 2014, Kikuchi et al., Nature 548, 592-596, 2017). Briefly, hiPS cells 1039A1 were plated on Laminin511, and differentiated in GMEM medium containing 8% KSR, Y27632 (Wako), A-83-01 (Wako), LDN193178 (STEMGENT). Purmorphamine (Wako), FGF8 (Wako, from day 1 to day 7), and CHIR99021 (Wako, from day 3 to day 12) were added. After cell sorting of Corin+ cells, cells were replated onto low attachment 96-well plates for neurosphere cultures and maintained in neurobasal medium with B27 supplement, 2 mM L-glutamine (Invitrogen), 10 ng/mL GDNF, 200 μM ascorbic acid, 20 ng/mL BDNF (all from Wako), and 400 μM dbcAMP (Sigma-Aldrich) for further 2 weeks. To avoid apoptosis, 30 μM of Y27632 (Wako) was added at the initial plating.” left out
Total protein was extracted from cell culture samples using RIPA buffer (Wako) containing protease inhibitor cocktail (Nacalai Tesque) and phosphatase inhibitor cocktail (Nacalai Tesque). After 15 minutes of centrifugation at 15,000 rpm at 4° C., supernatants were collected and protein concentrations were measured using a Pierce 660 nm Protein Assay Kit (Thermo Scientific). […]

microglia = test: cytokine production of microglia upon LPS stimulation (qPCR, ELISA), with Nrf2 siRNA; assay type: cell-based; details: for up-regulation of proinflammatory cytokine gene expression by LPS stimulation: qPCR and ELISA, FIGS. 2A, 2B; for up-regulation of proinflammatory cytokine gene expression by LPS stimulation / induction of expression of several chemokines and iNOS mRNA: LPS stimulation; for induction of expression of several chemokines and iNOS mRNA: FIG. 2A
Method: Total RNA was extracted with RNeasy kit (Qiagen) followed by cDNA synthesis using iScript (Bio-Rad). Quantitative PCRs were carried out with SYBR green ExTaq (TaKaRa). Primers for genes were designed by using PrimerBank (Wang et al., 2012).
Studies were made on whether the compounds 1 and 2 would suppress cytokine production of microglia.
In the cells treated with Nrf2 siRNA, the suppression of cytokine production was not observed. *P<0.05.

[2] = system: iPSC-derived DA neurons transplanted in striatum; test: transplantation of hiPSC-derived DA neurons into murine striatum; assay type: in vivo, SCID mice; details: four weeks after the transplantation; mice; administered from one hour before surgery for four days
Method: (§2) C57black/6J mice, 8 to 9-week old, were intraperitoneally injected with LPS (O55:B5) (manufactured by Sigma, L2880) at 1 mg/kg once daily for four days. hiPSC-derived dopaminergic (DA) progenitors were transplanted in striatum of 4-week-old SCID mice. Drug treatment was performed one hour before LPS-injection or iPSC transplantation.
The compound 1 was initially dissolved in DMSO at a concentration of 100 mg/mL and diluted to desired concentration with 10% Tween 80 (polysorbate 80 (HX2), manufactured by HOF Corporation) in physiological saline solution, and subcutaneously delivered in a volume of 0.05 mL/kg. The compound 2 was suspended in 0.5% carboxymethylcellulose (Nacalai Tesque) and orally administered in a volume of 0.1 mL/kg at desired concentration. Drug-treated animals were anesthetized with isofluorane for blood sampling and subsequently perfused with physiological saline solution. […] Concentration of target compounds or dopamine in serum and brain homogenates were analyzed by LC/MS using an Agilent 6420 Q-TOF mass spectrometer with an Agilent 1290 Nano-flow HPLC system (Agilent Technologies). […]
Arrows indicate iPSC-derived cells that are co-labeled by TH or Nurr1 (both are dopaminergic markers). […] The transplanted DA neurons were identified by hNuclei staining and survived iPSC-derived DA neurons were quantified with co-staining of TH and Nurr1 dopaminergic markers. […]

[3] = system: hiPSC-derived dopaminergic neuron progenitors; test: co-culture of hiPSC-derived dopaminergic neuron progenitors with murine glia under H2O2 oxidative stress; assay type: cell-based, human; details: H2O2 treatment
Method: Microglial cell line BV-2 was maintained in high glucose Dulbecco's modified Eagle's medium (DMEM) (Nacalai Tesque) supplemented with 10% fetal bovine serum (Nichirei Bioscienses), 100 U/mL penicillin, and 100 μg/mL streptomycine. Primary hippocampal and cortical neuronal cultures were prepared from embryonic day 18 mice and maintained in Neurobasal medium (Life Technologies) supplemented with 2% B27 supplement, 100 U/mL, penicillin, 100 μg/mL streptomycin, and 0.5 mM L-glutamine. Dopaminergic neuronal cultures were prepared from ventral midbrain of embryonic day 13 mice and maintained in Neurobasal medium (Life Technologies) supplemented with 10% fetal bovine serum, 2% B27 supplement, 10 ng/mL GDNF, 100 U/mL penicillin, and 100 μg/mL streptomycin. For depletion of glial cells, 5 μM cytosine β-D-arabinofuranoside, 10 μM 5-fluorouracil, and 10 μM uridine (all from Sigma-Aldrich) were added at 2-day culture. Mixed glial cultures were obtained from new born murine pups (P1 to P4) and maintained in T75 or T175 flask. Media were changed every 3-4 days until the cells get confluent. Microglia were obtained either by shaking vigorously or Cd11b-positive selection (Invitrogen). […]
The neuronal survival was evaluated according to the number of human nuclei by immunostaining (FIGS. 5A and 5B).
Dopaminergic markers of Nurr1 and TH were evaluated by qPCR (FIG. 5C). […]

mice injected with LPS = test: LPS-induced neuro-inflammation and neurodegeneration in mice; assay type: in vivo, C57black/6J mice
Method: as §2
The compound 1 was initially dissolved in DMSO at a concentration of 100 mg/mL and diluted to desired concentration with 10% Tween 80 (polysorbate 80 (HX2), manufactured by HOF Corporation) in physiological saline solution, and subcutaneously delivered in a volume of 0.05 mL/kg. The compound 2 was suspended in 0.5% carboxymethylcellulose (Nacalai Tesque) and orally administered in a volume of 0.1 mL/kg at desired concentration. Drug-treated animals were anesthetized with isofluorane for blood sampling and subsequently perfused with physiological saline solution. Brain homogenates were prepared using the Beads Crusher μT-12 system (TAITEC) in five-volume of physiological saline solution. Concentration of target compounds or dopamine in serum and brain homogenates were analyzed by LC/MS using an Agilent 6420 Q-TOF mass spectrometer with an Agilent 1290 Nano-flow HPLC system (Agilent Technologies). For measurement of dopamine, 50 mg/mL ascorbic acid was added to avoid oxidization.
Adult mouse brains were perfused with PBS then fixed in 4% paraformaldehyde, and 40-μm sections were cut with a vibratome (Leica) or 20-μm sections with a cryostat (Leica) after equilibrating in 30% sucrose/PBS. After antigen retrieval using HistoOne (Nacalai Tesque), tissues were stained with indicated antibodies.
LPS was intraperitoneally administered to mice to induce neuro-inflammation. Drug (the compound 2) was administered one hour before the LPS injection to the mice. The drug was orally administered at a indicated dose once daily.
Glial activation and cytokine production were evaluated at day 1 after the administration. Degeneration of dopaminergic nerves were evaluated at day 7 and day 14 (FIGS. 4B and 4C). […]
Animals, N=5 to 6, were analyzed regarding each condition. […]

| Compound | Nrf2 expression ([1]; control siRNA-treated cells) | expression of Nrf2 in Cd11b-positive microglial cells [1] | Nrf2 expression ([1]; p21 siRNA-treated cells) | IC50 (DYRK1A) | Nrf2 (Western blotting) (microglial cells BV-2) | cyclin D1 (Western blotting) (microglial cells BV-2) | p21 (Western blotting) (microglial cells BV-2) | up-regulation of proinflammatory cytokine gene expression by LPS stimulation (microglia) | induction of expression of several chemokines and iNOS mRNA (microglia; qPCR) | suppression of cytokine production (microglia; cells treated with Nrf2 siRNA, qPCR, FIG. 2C) | survival rate of iPSC-derived DA neurons [2] | survival of DA neurons ([3]; co-culture with glia, FIGS. 5A to 5C) | protection of neurons ([3]; without glia) | loss of dopaminergic neurons (TH-positive cells in SNpc) (mice injected with LPS; LPS-injected mice, day 7 and day 14, FIGS. 4B and 4C) | cytokine production (mice injected with LPS; qPCR and ELISA, striatum tissues at day 1, oral once daily, FIGS. 4E and 4F) | glial activation (mice injected with LPS; qPCR on striatum tissues at day 1 from last LPS injection, oral once daily, FIG. 4D) |
| --- | --- | --- | --- | --- | --- | --- | --- | --- | --- | --- | --- | --- | --- | --- | --- | --- |
| c1cncc(-c2ccc3[nH]ncc3c2)c1 [Compound 1] | increased | induced | did not increase | 77 nM | up-regulated | up-regulated | up-regulated | suppressed effectively | also suppressed | not observed |  |  |  |  |  |  |
| CNC1/C(=C/C(C)=O)Sc2ccc3occc3c21 (stereo not shown) [Compound 2] | increased | induced | did not increase | 32.9 nM |  |  |  | suppressed effectively | also suppressed |  | improves | increased depending on the added amount | did not occur | rescued | suppressed | suppressed |
